Measured values taken from patent publication US20250382296A1, “NITROGEN-CONTAINING FUSED THREE RING PRMT5 INHIBITOR, AND PREPARATION METHOD THEREFOR AND PHARMACEUTICAL USE THEREOF” (Abbisko Therapeutics Co., Ltd., priority 2022, published 2025).

Experiments:
[1] = system: HCT 116 wild-type MTAP cells; assay: Inhibition of proliferation of HCT116 wild-type MTAP cells (CellTiter-Glo, 6 days); type: cell-based; conditions: Homo sapiens, HCT-116, 144 h
Protocol: (§1) 1. HCT 116 MTAP-knockout cells and HCT 116 wild-type MTAP cells were plated in 96-well flat-bottom plates and cultured overnight at 37° C. and […] in McCoy's 5A medium containing 10% fetal bovine serum+1% penicillin-streptomycin.
(§2) 2. The next day, compounds were each dissolved in DMSO, diluted successively with DMSO and medium and then transferred to cell plates; the final concentration of each compound was 10 μM, 4-fold dilution was performed to obtain 9 concentration points, and a DMSO control was provided.
(§3) 3. Cells not treated with compound were subjected to CellTiter-Glo Luminescent Cell Viability Assay (Promega) to detect the cell viability, and reference was made to the kit instructions for the operation; the plates were then placed on an EnVision Multilabel Reader to detect luminescence signals.
(§4) 4. Meanwhile, the cell plates containing cells treated with compounds were cultured continuously at 37° C. and […] CO2 for 6 days.
(§5) 5. Then, the cell viability was also detected by CellTiter-Glo.
(§6) 6. Finally, dose response curves were plotted using the four parameter dose response curve module of GraphPad Prism v 9.2.0 software and proliferation inhibition IC50 (unit: nM) was calculated.

[2] = system: HCT 116 MTAP-knockout cells; assay: Inhibition of proliferation of HCT116 MTAP-knockout cells (CellTiter-Glo, 6 days); type: cell-based, human; conditions: for IC50: Homo sapiens, HCT-116, 144 h, proliferation inhibition, HCT116 MTAP-knockout, 6 days, CellTiter-Glo; for Selectivity: IC50 HCT116 wild-type cells / IC50 HCT116 MTAP-knockout cells
Protocol: as §1, §2, §3, §4, §5, §6

Compound: C[C@H](c1ncccn1)N(Cc1ccc(C(F)(F)F)cn1)C(=O)c1ccc2nc(N)c3c(cnn3C)c2c1 [Comparative compound 1, reference compound]
- IC50 [1]: 42.7 nM
- IC50 [2]: 16.3 nM
- Selectivity [2]: 2.6

Compound: CC(c1ncccn1)N(Cc1ccc(C(F)(F)F)cn1)C(=O)c1ccc2nc(N)c3[nH]ncc3c2c1 (stereo not drawn) [Comparative compound 2, reference compound]
- IC50 [1]: 78.3 nM
- IC50 [2]: 35.5 nM
- Selectivity [2]: 2.2

Compound: CC(C1CC1)N(Cc1ccc(C(F)(F)F)cn1)C(=O)c1ccc2nc(N)c3cnn(C)c3c2c1 (stereo not drawn) [Comparative compound 3, reference compound]
- IC50 [1]: 96 nM
- IC50 [2]: 6 nM
- Selectivity [2]: 16

Compound: C[C@H](c1ncccn1)N(Cc1ccc(C(F)(F)F)cn1)C(=O)c1ccc2nc(N)c3cnn(C)c3c2c1 [Comparative compound 4, reference compound]
- IC50 [1]: 85 nM
- IC50 [2]: 6 nM
- Selectivity [2]: 14.2

Compound: Cc1ncc2c(N)nc3ccc(C(=O)N(Cc4ccc(C(F)(F)F)cn4)[C@H](C)c4ncccn4)cc3n12 [Example 1, (R)-4-amino-1-methyl-N-(1-(pyrimidin-2-yl)ethyl)-N-((5-(trifluoromethyl)pyridin-2-yl)methyl)imidazo[1,5-a]quinoxaline-8-carboxamide]
- IC50 [1]: 1500 nM
- IC50 [2]: 29 nM
- Selectivity [2]: 51.7

Compound: Cc1ncc2c(N)nc3cc(F)c(C(=O)N(c4cnn(C)c4)[C@@H]4COc5cc(C(F)(F)F)ccc54)cc3n12 [Example 2, (S)-4-amino-7-fluoro-1-methyl-N-(1-methyl-1H-pyrazol-4-yl)-N-(6-(trifluoromethyl)-2,3-dihydrobenzofuran-3-yl)imidazo[1,5-a]quinoxaline-8-carboxamide]
- IC50 [1]: 207 nM
- IC50 [2]: 5 nM
- Selectivity [2]: 41.4

Compound: C[C@H](c1ncccn1)N(Cc1ccc(C(F)(F)F)cn1)C(=O)c1ccc2nc(N)c3cncn3c2c1 [Example 3, (R)-4-amino-N-(1-(pyrimidin-2-yl)ethyl)-N-((5-(trifluoromethyl)pyridin-2-yl)methyl)imidazo[1,5-a]quinoxaline-8-carboxamide]
- IC50 [1]: 166 nM
- IC50 [2]: 8 nM
- Selectivity [2]: 20.8

Compound: C[C@@H]1COC[C@H](c2ccc(C(F)(F)F)cn2)N1C(=O)c1ccc2nc(N)c3cncn3c2c1 [Example 14a, (4-aminoimidazo[1,5-a]quinoxalin-8-yl)((3R,5S)-3-methyl-5-(5-(trifluoromethyl)pyridin-2-yl)morpholino)methanone]
- IC50 [1]: 2060 nM
- IC50 [2]: 55 nM
- Selectivity [2]: 37.4

Compound: Nc1nc2ccc(C(=O)N(CC3CC3)C3CCc4cc(C(F)(F)F)ccc43)cc2n2cncc12 (stereo not drawn) [Example 22, 4-amino-N-(cyclopropylmethyl)-N-(5-(trifluoromethyl)-2,3-dihydro-1H-inden-1-yl)imidazo[1,5-a]quinoxaline-8-carboxamide]
- IC50 [1]: 5480 nM
- IC50 [2]: 154 nM
- Selectivity [2]: 35.6

Compound: Cn1cc(N(C(=O)c2ccc3nc(N)c4cncn4c3c2)C2COc3cc(C(F)(F)F)ccc32)cn1 (stereo not drawn) [Example 30, 4-amino-N-(1-methyl-1H-pyrazol-4-yl)-N-(6-(trifluoromethyl)-2,3-dihydrobenzofuran-3-yl)imidazo[1,5-a]quinoxaline-8-carboxamide]
- IC50 [1]: 725 nM
- IC50 [2]: 12 nM
- Selectivity [2]: 60.4

Compound: Cn1cc(N(C(=O)c2ccc3nc(N)c4cncn4c3c2)[C@@H]2COc3cc(C(F)(F)F)ccc32)cn1 [Example 30a, (S)-4-amino-N-(1-methyl-1H-pyrazol-4-yl)-N-(6-(trifluoromethyl)-2,3-dihydrobenzofuran-3-yl)imidazo[1,5-a]quinoxaline-8-carboxamide]
- IC50 [1]: 381 nM
- IC50 [2]: 4 nM
- Selectivity [2]: 95.3

Compound: Nc1nc2ccc(C(=O)N(CC3CC3)[C@@H]3CCc4nc(C(F)(F)F)ccc43)cc2n2cncc12 [Example 34a, (R)-4-amino-N-(cyclopropylmethyl)-N-(2-(trifluoromethyl)-6,7-dihydro-5H-cyclopenta[b]pyridin-5-yl)imidazo[1,5-a]quinoxaline-8-carboxamide]
- IC50 [2]: 225 nM

Compound: Nc1nc2ccc(C(=O)N(CC3CC3)[C@H]3CCc4nc(C(F)(F)F)ccc43)cc2n2cncc12 [Example 34b, (S)-4-amino-N-(cyclopropylmethyl)-N-(2-(trifluoromethyl)-6,7-dihydro-5H-cyclopenta[b]pyridin-5-yl)imidazo[1,5-a]quinoxaline-8-carboxamide]
- IC50 [2]: 1820 nM

Compound: Nc1nc2ccc(C(=O)N(Cc3ccc(C(F)(F)F)cn3)CC3CC3)cc2n2cncc12 [Example 144, 4-amino-N-(cyclopropylmethyl)-N-((5-(trifluoromethyl)pyridin-2-yl)methyl)imidazo[1,5-a]quinoxaline-8-carboxamide]
- IC50 [1]: 2060 nM
- IC50 [2]: 22 nM
- Selectivity [2]: 93.5

Compound: CC(C1CC1)N(Cc1ccc(C(F)(F)F)cn1)C(=O)c1ccc2nc(N)c3cncn3c2c1 (stereo not drawn) [Example 145, 4-amino-N-(1-cyclopropylethyl)-N-((5-(trifluoromethyl)pyridin-2-yl)methyl)imidazo[1,5-a]quinoxaline-8-carboxamide]
- IC50 [1]: 1080 nM
- IC50 [2]: 24 nM
- Selectivity [2]: 44.8

Compound: CN(Cc1ccc(C(F)(F)F)cn1)C(=O)c1ccc2nc(N)c3cncn3c2c1 [Example 146, 4-amino-N-methyl-N-((5-(trifluoromethyl)pyridin-2-yl)methyl)imidazo[1,5-a]quinoxaline-8-carboxamide]
- IC50 [1]: > 10000 nM
- IC50 [2]: 224 nM
- Selectivity [2]: >44.6

Compound: Nc1nc2ccc(C(=O)N(Cc3ccc(C(F)(F)F)cn3)C3CCC3)cc2n2cncc12 [Example 147, 4-amino-N-cyclobutyl-N-((5-(trifluoromethyl)pyridin-2-yl)methyl)imidazo[1,5-a]quinoxaline-8-carboxamide]
- IC50 [1]: 4990 nM
- IC50 [2]: 115 nM
- Selectivity [2]: 43.4

Compound: Nc1nc2ccc(C(=O)N(Cc3ccc(C(F)(F)F)cn3)CC(F)(F)F)cc2n2cncc12 [Example 148, 4-amino-N-(2,2,2-trifluoroethyl)-N-((5-(trifluoromethyl)pyridin-2-yl)methyl)imidazo[1,5-a]quinoxaline-8-carboxamide]
- IC50 [1]: > 10000 nM
- IC50 [2]: 202 nM
- Selectivity [2]: >49.5

Compound: Cn1cc(N(Cc2ccc(C(F)(F)F)cn2)C(=O)c2ccc3nc(N)c4cncn4c3c2)cn1 [Example 149, 4-amino-N-(1-methyl-1H-pyrazol-4-yl)-N-((5-(trifluoromethyl)pyridin-2-yl)methyl)imidazo[1,5-a]quinoxaline-8-carboxamide]
- IC50 [1]: 7210 nM
- IC50 [2]: 50 nM
- Selectivity [2]: 144.1

Compound: CCC(C1CC1)N(Cc1ccc(C(F)(F)F)cn1)C(=O)c1ccc2nc(N)c3cncn3c2c1 (stereo not drawn) [Example 154, 4-amino-N-(1-cyclopropylpropyl)-N-((5-(trifluoromethyl)pyridin-2-yl)methyl)imidazo[1,5-a]quinoxaline-8-carboxamide]
- IC50 [1]: 406 nM
- IC50 [2]: 22 nM
- Selectivity [2]: 18.5

Compound: Nc1nc2ccc(C(=O)N(Cc3ccc(OC(F)(F)F)cn3)CC3CC3)cc2n2cncc12 [Example 158, 4-amino-N-(cyclopropylmethyl)-N-((5-(trifluoromethoxy)pyridin-2-yl)methyl)imidazo[1,5-a]quinoxaline-8-carboxamide]
- IC50 [2]: 68 nM

Compound: Nc1nc2ccc(C(=O)N(CC3CC3)[C@H]3COc4nc(C(F)(F)F)ccc43)cc2n2cncc12 [Example 181b, (R)-4-amino-N-(cyclopropylmethyl)-N-(6-(trifluoromethyl)-2,3-dihydrofuro[2,3-b]pyridin-3-yl)imidazo[1,5-a]quinoxaline-8-carboxamide]
- IC50 [2]: 3130 nM

Compound: CC(c1ccc(C(F)(F)F)cn1)N(CC1CC1)C(=O)c1ccc2nc(N)c3cncn3c2c1 (stereo not drawn) [Example 203, 4-amino-N-(cyclopropylmethyl)-N-(1-(5-(trifluoromethyl)pyridin-2-yl)ethyl)imidazo[1,5-a]quinoxaline-8-carboxamide]
- IC50 [2]: 155 nM

Compound: CN(C(=O)c1ccc2nc(N)c3cncn3c2c1)C1COc2nc(C(F)(F)F)ccc21 (stereo not drawn) [Example 204, 4-amino-N-methyl-N-(6-(trifluoromethyl)-2,3-dihydrofuro[2,3-b]pyridin-3-yl)imidazo[1,5-a]quinoxaline-8-carboxamide]
- IC50 [2]: 238 nM

Compound: Cn1cc(N(C(=O)c2ccc3nc(N)c4cncn4c3c2)[C@@H]2COc3nc(C(F)(F)F)ccc32)cn1 [Example 205a, (S)-4-amino-N-(1-methyl-1H-pyrazol-4-yl)-N-(6-(trifluoromethyl)-2,3-dihydrofuro[2,3-b]pyridin-3-yl)imidazo[1,5-a]quinoxaline-8-carboxamide]
- IC50 [2]: 313 nM

Compound: COCCN(Cc1ccc(C(F)(F)F)cn1)C(=O)c1ccc2nc(N)c3cnc(C)n3c2c1 [Example 224, 4-amino-N-(2-methoxyethyl)-1-methyl-N-((5-(trifluoromethyl)pyridin-2-yl)methyl)imidazo[1,5-a]quinoxaline-8-carboxamide]
- IC50 [2]: 323 nM

Compound: CN(Cc1ccc(C(F)(F)F)cn1)C(=O)c1cc2c(cc1F)nc(N)c1cccn12 [Example 232, 4-amino-7-fluoro-N-methyl-N-((5-(trifluoromethyl)pyridin-2-yl)methyl)pyrrolo[1,2-a]quinoxaline-8-carboxamide]
- IC50 [2]: 2240 nM
